Data as given in patent US20130172847A1, “Compositions for Providing Vitamin D Year Round and Uses Thereof” (priority 2002, published 2013).

Experiments:
[1] = Conversion of 7-DHC and/or T3 to PreD3 in cream under artificial UVB light (simulates summer sunlight); assay type: physicochemical; settings: for % Yield / PreD3 Formed: Cream (1 g), artificial UVB 2 min
From the text: (§1) In contrast, compositions comprising increasing amounts of T3 produce increasing amounts of PreD3 when exposed to winter sunlight.
(§2) Conversion of 7-Dehydrocholesterol (7-DHC) and/or Tachysterol (T3) to Previtamin D3 (PreD3)

[2] = Conversion of 7-DHC and/or T3 to PreD3 in ethanol under winter natural sunlight; assay type: physicochemical
From the text: as §1, §2

[3] = human skin or organic solvent exposed to 295 nm radiation; cited from earlier work
[4] = Conversion of 7-DHC and/or T3 to PreD3 in cream under winter natural sunlight; assay type: physicochemical; settings: Cream (1 g); natural sunlight 5-60 min; start 7-DHC 1.0 μg, T3 0 μg
From the text: as §1, §2

[5] = cited from earlier work
[6] = Ethanol (1 ml), natural sunlight 90 min, start 7-DHC 0 μg, T3 10 μg

SMILES | % Yield ([1]; start 7-DHC 0 μg, T3 1 μg) [%] | PreD3 Formed ([1]; start 7-DHC 0 μg, T3 1 μg) [µg] | conversion to PreD3 when exposed to artificial UVB light (in words) [1] | % Yield [2, 6] [%] | PreD3 Formed [2, 6] [µg] | % Yield ([1]; start 7-DHC 1.0 μg, T3 0 μg) [%] | PreD3 Formed ([1]; start 7-DHC 1.0 μg, T3 0 μg) [µg] | provitamin D3 converted to previtamin D3 [3] | % Yield ([2]; Ethanol (1 ml), natural sunlight 90 min, start 7-DHC 10 μg, T3 0 μg) [%] | conversion to PreD3 when exposed to winter sunlight (in words) ([2]; winter natural sunlight, summary of the table) | % Yield [4] [%] | portion of tachysterol among photoproducts ([5]; exposed to light in the range of 254 nm) | previtamin D3 produced ([5]; irradiated at 0° C. with 254 nm light, thereafter (0° C.) with 350 nm light) [%]
CC1=C(/C=C\C2=CCC[C@]3(C)[C@@H]([C@H](C)CCCC(C)C)CC[C@@H]23)C[C@@H](O)CC1 [T3, Tachysterol] | 52 | 0.52 | converted to PreD3 | 77 | 7.1 |  |  |  |  |  |  |  | 
CC(C)CCC[C@@H](C)[C@H]1CC[C@H]2C3=CC=C4C[C@@H](O)CC[C@]4(C)[C@H]3CC[C@]12C [7-DHC, 7-Dehydrocholesterol] |  |  | converted to PreD3 |  |  | 26 | 0.26 | up to 65% | 0 | inefficiently converted to PreD3 | 0 | about 75% | ≤ 83
